Test results from patent US9732093B2, “FLAP modulators” (JANSSEN PHARMACEUTICA NV, priority 2013, dated 2017).
Structures can show the parent of a compound that is named as a salt.

Tested on: leukotriene pathway in human whole blood
Test: Human whole blood assay (LTB4 levels after A23187 stimulation)
Type: cell-based
Details: blood diluted 1:1 in RPMI, 15 min pre-incubation, A23187 7 μg/mL for 30 min at 37° Celsius, plasma LTB4
Method: (§1) The ability of the compounds of the present invention to treat a FLAP-mediated disease and/or disorder, or associated symptoms or complications thereof, was determined using the following procedures. Binding assay data represent the average value obtained from two different assay plates, with samples run in duplicate on each plate. Human whole blood assay data represent a single replicate on an assay plate using whole blood from at least one healthy donor.
An in vitro cellular assay was performed using human whole blood collected in heparin-containing tubes, which was used to test the ability of compounds to modulate the leukotriene pathway in human whole blood. The blood was diluted 1:1 in RPMI medium, pre-incubated for 15 min at 37° Celsius with test compounds at various concentrations, and then stimulated with calcium ionophore, A23187 (7 μg/mL), for 30 min at 37° Celsius. The samples were then centrifuged and plasma was removed. The plasma was diluted in assay buffer and LTB4 levels were measured using a commercial kit (Enzo Life Sciences). The concentration of each compound that was required for half-maximal inhibition (modulation) of recombinant enzyme activity (IC50) was calculated by a 4-parameter equation using the program GraphPad Prism (GraphPad software).

Molecule	IC50 [µM]
2-(4-Cyclobutyl-2-fluoro-3-{[4-(trifluoromethyl)benzyl]oxy}phenyl)-5H-pyrrolo[2,3-b]pyrazine trifluoroacetate salt [Example 177]	0.771
5-(4-Cyclobutyl-2-fluoro-3-hydroxyphenyl)pyridin-2-amine [Intermediate F]	1.3
5-(4-Cyclobutyl-2-fluoro-3-methoxyphenyl)-1H-pyrrolo[2,3-b]pyridine [Intermediate I]	1.67
6-Cyclobutyl-2-fluoro-3-(5H-pyrrolo[2,3-b]pyrazin-2-yl)phenol [Example 176]	0.892

Same assay, conditions: human whole blood diluted 1:1 in RPMI, A23187 stimulation; Table 6 (additional runs)

IC50 [µM]	Molecule
0.266	Nc1cnc(-c2ccc(C3CCC3)c(OCC(O)Cn3c(=O)[nH]c4ccccc43)c2F)cn1 (racemic) [Example 311, racemic 1-{3-[3-(5-Aminopyrazin-2-yl)-6-cyclobutyl-2-fluorophenoxy]-2-hydroxypropyl}-1,3-dihydro-2H-benzimidazol-2-one]
0.895	Nc1cnc(-c2ccc(C3CCC3)c(OCc3cccc(C(F)(F)F)c3)c2F)cn1 [Compound 2, 5-(4-Cyclobutyl-2-fluoro-3-{[3-(trifluoromethyl)benzyl]oxy}phenyl)pyrazin-2-amine]
0.126	COc1cc(Oc2c(C3CCC3)ccc(-c3cnc(N)cn3)c2F)ncn1 [Example 97, 5-{4-Cyclobutyl-2-fluoro-3-[(6-methoxypyrimidin-4-yl)oxy]phenyl}pyrazin-2-amine]
0.124	Nc1cnc(-c2ccc(C3CCC3)c(Oc3cc(O)ncn3)c2F)cn1 [Example 98]
0.0214	Nc1cnc(-c2ccc(C3CCC3)c(Oc3ccnc(N)n3)c2F)cn1 [Example 130, 4-[3-(5-Aminopyrazin-2-yl)-6-cyclobutyl-2-fluorophenoxy]pyrimidin-2-amine]
0.128	NC(=O)c1ccc(Oc2c(C3CCC3)ccc(-c3cnc(N)cn3)c2F)cc1 [Example 155, 4-[3-(5-Aminopyrazin-2-yl)-6-cyclobutyl-2-fluorophenoxy]benzamide]
0.161	CC(C)(C)c1ccc(-c2cnc(N)nc2)c(F)c1Oc1cc(N)ncn1 [Example 208, 5-{3-[(6-Aminopyrimidin-4-yl)oxy]-4-tert-butyl-2-fluorophenyl}pyrimidin-2-amine]
1.86	N#CCOc1c(C2CCC2)ccc(-c2cnc(N)cn2)c1F [Example 276, [3-(5-Aminopyrazin-2-yl)-6-cyclobutyl-2-fluorophenoxy]acetonitrile]
0.191	Nc1cnc(-c2ccc(C3CCC3)c(Oc3cccnn3)c2F)cn1 [Example 277, 5-[4-Cyclobutyl-2-fluoro-3-(pyridazin-3-yloxy)phenyl]pyrazin-2-amine]
0.114	Nc1cnc(-c2ccc(C3CC3)c(Oc3nccc(N)n3)c2F)cn1 [Example 279, 2-[3-(5-Aminopyrazin-2-yl)-6-cyclopropyl-2-fluorophenoxy]pyrimidin-4-amine]
0.453	COC(=O)c1coc(COc2c(C3CCC3)ccc(-c3cnc(N)cn3)c2F)n1 [Example 281, Methyl 2-{[3-(5-aminopyrazin-2-yl)-6-cyclobutyl-2-fluorophenoxy]methyl}-1,3-oxazole-4-carboxylate trifluoroacetic acid salt]
0.538	Nc1cnc(-c2ccc(C3CCC3)c(OCc3nc4ccccc4s3)c2F)cn1 [Example 283, 5-[3-(1,3-Benzothiazol-2-ylmethoxy)-4-cyclobutyl-2-fluorophenyl]pyrazin-2-amine trifluoroacetic acid salt]
0.1	Nc1cnc(-c2ccc(C3CCC3)c(OCCN3C(=O)c4ccccc4C3=O)c2F)cn1 [Example 293, 2-{2-[3-(5-Aminopyrazin-2-yl)-6-cyclobutyl-2-fluorophenoxy]ethyl}-1H-isoindole-1,3(2H)-dione]
0.188	Nc1cnc(-c2ccc(C3CCC3)c(OCCNc3cnccn3)c2F)cn1 [Example 295, 5-{4-Cyclobutyl-2-fluoro-3-[2-(pyrazin-2-ylamino)ethoxy]phenyl}pyrazin-2-amine trifluoroacetic acid salt]
0.283	Nc1cnc(-c2ccc(C3CCC3)c(OCCNc3ncccn3)c2F)cn1 [Example 296, N-{2-[3-(5-Aminopyrazin-2-yl)-6-cyclobutyl-2-fluorophenoxy]ethyl}pyrimidin-2-amine trifluoroacetic acid salt]
0.212	Nc1cnc(-c2ccc(C3CCC3)c(OCCNc3ccncn3)c2F)cn1 [Example 297, N-{2-[3-(5-Aminopyrazin-2-yl)-6-cyclobutyl-2-fluorophenoxy]ethyl}pyrimidin-4-amine]
> 10	Cc1ccc(-c2cnc(N)cn2)c(F)c1Oc1ncccn1 [Example 314, 5-[2-Fluoro-4-methyl-3-(pyrimidin-2-yloxy)phenyl]pyrazin-2-amine]

Molecule	IC50 [µM]
2-(4-Cyclobutyl-2-fluoro-3-{[4-(trifluoromethyl)benzyl]oxy}phenyl)-5H-pyrrolo[2,3-b]pyrazine trifluoroacetate salt [Example 177]	0.892
5-(4-Cyclobutyl-2-fluoro-3-methoxyphenyl)-1H-pyrrolo[2,3-b]pyridine [Intermediate I]	1.67
6-Cyclobutyl-2-fluoro-3-(5H-pyrrolo[2,3-b]pyrazin-2-yl)phenol [Example 176]	1.3

Biological target: human FLAP (Homo sapiens (Human), UniProt P20292)
Test: FLAP binding assay (HTRF format)
Details: human FLAP wild type membranes, HTRF format; Table 6 (additional runs)
Method: as §1
Data are expressed as a HTRF ratio.

human FLAP, sequence (P20292 whole entry): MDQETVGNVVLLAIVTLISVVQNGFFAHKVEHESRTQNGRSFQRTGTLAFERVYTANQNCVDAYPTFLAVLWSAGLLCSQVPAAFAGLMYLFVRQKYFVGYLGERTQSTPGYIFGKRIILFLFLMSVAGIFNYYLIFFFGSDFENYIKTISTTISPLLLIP

Ki [µM]	Molecule
0.0861	Nc1cnc(-c2ccc(C3CCC3)c(OCc3cccc(C(F)(F)F)c3)c2F)cn1 [Compound 2, 5-(4-Cyclobutyl-2-fluoro-3-{[3-(trifluoromethyl)benzyl]oxy}phenyl)pyrazin-2-amine]
0.0072	Nc1cnc(-c2ccc(C3CCC3)c(Oc3ncccc3C(F)(F)F)c2F)cn1 [Example 121, 5-(4-Cyclobutyl-2-fluoro-3-{[3-(trifluoromethyl)pyridin-2-yl]oxy}phenyl)pyrazin-2-amine]
0.0037	Nc1cnc(-c2ccc(C3CCC3)c(Oc3ncccc3Cl)c2F)cn1 [Example 122]
0.0028	Nc1cnc(-c2ccc(C3CCC3)c(Oc3ccnc(C(F)(F)F)n3)c2F)cn1 [Example 124, 5-(4-Cyclobutyl-2-fluoro-3-{[2-(trifluoromethyl)pyrimidin-4-yl]oxy}phenyl)pyrazin-2-amine]
0.0046	Cc1nccc(Oc2c(C3CCC3)ccc(-c3cnc(N)cn3)c2F)n1 [Example 134, 5-{4-Cyclobutyl-2-fluoro-3-[(2-methylpyrimidin-4-yl)oxy]phenyl}pyrazin-2-amine]
0.0043	Nc1cnc(-c2ccc(C3CCC3)c(Oc3ccnc(Cl)n3)c2F)cn1 [Example 137, 5-{3-[(2-Chloropyrimidin-4-yl)oxy]-4-cyclobutyl-2-fluorophenyl}pyrazin-2-amine]
0.0055	Nc1cnc(-c2ccc(C3CCC3)c(Oc3cc(C4CC4)ncn3)c2F)cn1 [Example 141, 5-{4-Cyclobutyl-3-[(6-cyclopropylpyrimidin-4-yl)oxy]-2-fluorophenyl}pyrazin-2-amine]
0.0176	Nc1cnc(-c2ccc(C3CCC3)c(Oc3ccc(C(=O)O)cn3)c2F)cn1 [Example 154, 6-[3-(5-Aminopyrazin-2-yl)-6-cyclobutyl-2-fluorophenoxy]pyridine-3-carboxylic acid]
0.0039	N#Cc1nc(N)cnc1-c1ccc(C2CCC2)c(OCc2cccc(C(=O)O)c2)c1F [Example 174, 3-{[3-(5-Amino-3-cyanopyrazin-2-yl)-6-cyclobutyl-2-fluorophenoxy]methyl}benzoic acid]
0.0085	COc1cc(Oc2c(C(C)(C)C)ccc(-c3cnc(N)cn3)c2F)ncn1 [Example 204, 5-{4-tert-Butyl-2-fluor-3-[(6-methoxypyrimidin-4-yl)oxy]phenyl}pyrazin-2-amine]
0.705	CC(C)(C)c1ccc(-c2cnc(N)cn2)cc1OCc1ccccc1 [Example 215, 5-[3-(Benzyloxy)-4-tert-butylphenyl]pyrazin-2-amine]
0.714	Nc1cnc(-c2ccc(Cl)c(OCc3ccccc3)c2F)cn1 [Example 216, 5-[3-(Benzyloxy)-4-chloro-2-fluorophenyl]pyrazin-2-amine]
1.04	Nc1cnc(-c2ccc(C3CCC3)c(OCc3ccccc3)c2)cn1 [Example 217, 5-[3-(Benzyloxy)-4-cyclobutylphenyl]pyrazin-2-amine]
0.282	CC(C)(C)OC(=O)N1CCCC(COc2c(C3CCC3)ccc(-c3cnc(N)cn3)c2F)C1 (stereo not shown) [Example 249, tert-Butyl 3-((3-(5-aminopyrazin-2-yl)-6-cyclobutyl-2-fluorophenoxy)methyl)piperidine-1-carboxylate]
0.101	Nc1cnc(-c2ccc(C3CCC3)c(OCC3CCOCC3)c2F)cn1 [Example 264, 5-[4-Cyclobutyl-2-fluoro-3-(tetrahydro-2H-pyran-4-ylmethoxy)phenyl]pyrazin-2-amine]
0.868	Nc1cnc(-c2ccc(C3CCC3)c(OCC3CCNCC3)c2F)cn1 [Example 298, 5-[4-Cyclobutyl-2-fluoro-3-(piperidin-4-ylmethoxy)phenyl]pyrazin-2-amine hydrogen chloride salt]
1.36	CCc1ccc(-c2cnc(N)cn2)c(F)c1Oc1ncccn1 [Example 316, 5-[4-Ethyl-2-fluoro-3-(pyrimidin-2-yloxy)phenyl]pyrazin-2-amine]
0.0365	Nc1cnc(-c2ccc(C3CCCCC3)c(Oc3ncccn3)c2F)cn1 [Example 320, 5-(4-Cyclohexyl-2-fluoro-3-(pyrimidin-2-yloxy)phenyl)pyrazin-2-amine]
0.421	CCc1ccc(-c2cnc(N)cn2)c(F)c1O [Example 333, 3-(5-Aminopyrazin-2-yl)-6-ethyl-2-fluorophenol]
0.65	Nc1cnc(-c2ccc(C3CCC3)c(OCc3ccc(Br)cc3)c2F)cn1 [Example 340, 5-{3-[(4-Bromobenzyl)oxy]4-cyclobutyl-2-fluorophenyl}pyrazin-2-amine]

Molecule	Ki [µM]
6-Cyclobutyl-2-fluoro-3-(5H-pyrrolo[2,3-b]pyrazin-2-yl)phenol [Example 176]	~0.075
CC(C)CNc1nccc(Oc2c(C3CCC3)ccc(-c3cnc(N)cn3)c2F)n1 [Example 261, 4-(3-(5-Aminopyrazin-2-yl)-6-cyclobutyl-2-fluorophenoxy)-N-isobutylpyrimidin-2-amine trifluoroacetic acid salt]	0.0022
